The structures appear in SMILES notation.

This experiment deals with T1, Human plasma kallikrein (Homo sapiens, UniProt P03952).
T1 construct: yields a heavy chain (371 amino acids) and a light chain (248 amino acids); purchased Enzyme Research Laboratories
The experiment can be described thus: Kallikrein Assay (fluorogenic substrate hydrolysis, AFC release). The experiment is classed as biochemical. Conditions: purified Human plasma kallikrein 0.5 nM; substrate Acetyl-K—P—R-AFC 100 mM; 50 mM HEPES pH 7.4. The gist of the method:
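Purified human plasma kallikrein (0.5 nM final) with Acetyl-K-P-R-AFC substrate (final ≤0.2 Km) in 50 mM HEPES pH 7.4, 150 mM NaCl, 5 mM CaCl2, 0.1% PEG 8000, after enzyme–inhibitor equilibration; room temperature or 37° C. AFC fluorescence (405 Ex/510 Em nm) under linear conditions; IC50 by four-parameter fit, Ki via Cheng-Prusoff.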

T1 sequence (P03952 391-638 limits assumed): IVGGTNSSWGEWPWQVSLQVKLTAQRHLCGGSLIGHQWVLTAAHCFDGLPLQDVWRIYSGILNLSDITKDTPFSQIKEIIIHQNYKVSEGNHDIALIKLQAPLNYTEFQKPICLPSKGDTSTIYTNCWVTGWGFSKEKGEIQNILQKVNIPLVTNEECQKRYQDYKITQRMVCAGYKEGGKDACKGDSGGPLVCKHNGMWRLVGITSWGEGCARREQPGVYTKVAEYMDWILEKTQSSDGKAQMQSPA
T1 sequence (P03952 20-390 partner limits assumed): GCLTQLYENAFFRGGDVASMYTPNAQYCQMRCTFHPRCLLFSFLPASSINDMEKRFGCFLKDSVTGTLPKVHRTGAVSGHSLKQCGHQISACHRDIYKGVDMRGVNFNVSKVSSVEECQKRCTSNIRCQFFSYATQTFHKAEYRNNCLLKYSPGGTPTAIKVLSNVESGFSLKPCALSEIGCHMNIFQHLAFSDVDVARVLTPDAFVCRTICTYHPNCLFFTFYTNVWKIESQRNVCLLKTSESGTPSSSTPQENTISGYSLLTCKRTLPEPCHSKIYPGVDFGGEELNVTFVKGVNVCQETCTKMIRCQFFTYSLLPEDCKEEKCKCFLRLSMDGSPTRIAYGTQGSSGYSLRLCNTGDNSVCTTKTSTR

In general, IC50 refers to the concentration that gives 50% inhibition. Read a high IC50 as weaker potency. As to `Cc1nc([C@@H](C)n2cc(C(=O)N[C@H]3C[C@@H](c4cc(Cl)ccc4C#N)C3)nn2)cnc1N1C[C@H]2CC2C1=O` (single isomer, unassigned) [Example 84], half-maximal inhibition (IC50) required 1.6 nM.

Molecule `Cc1c(C(C)n2cc(C(=O)NC3CC(c4cccc(Cl)c4)C3O)nn2)nnc(N2C[C@H]3C[C@H]3C2=O)c1C` (single isomer, unassigned) [Example 131, N-((1R,2R,3R or 1S,2S,3S))-3-(3-chlorophenyl)-2-hydroxycyclobutyl)-1-((S or R)-1-(4,5-dimethyl-6-((1R,5S)-2-oxo-3-azabicyclo[3.1.0]hexan-3-yl)pyridazin-3-yl)ethyl)-1H-1,2,3-triazole-4-carboxamide] returned an IC50 of 281 nM.

The values are drawn from US12528786B2, “Plasma kallikrein inhibitors” (Merck Sharp & Dohme LLC, priority 2020, dated 2026).
